From patent US20080228408A1, “Method for Determining the State of an Ensemble of Cells and System for the Implementation of the Method” (priority 2005, published 2008)

Test system: neuronal cells
Experiment: Toxicogenomic DNA chip test: gene expression level (RES) in cells exposed to the compound compared to unexposed cells
Assay type: cell-based
From the text: One wishes to carry out the evaluation of the toxicity of a collection of (15) pesticides using a toxicogenomic analysis of the impact of these pesticides on neuronal cells, according to 4 modes of exposure of the cells to the compounds:
DNA chips built specifically to test the expression level of the 51 genes in cells under study, each chip being configured only for one gene in our case, each chip allowing to carry out for each gene a redundant number of measurements (16) in order to stabilize the levels of expression by analysing the results on average. The spots on the chips are numbered sp1 to sp16.
An automated device D5 allowing, on signal of execution of the C2 test, to take a E1 sample of the cell culture C (non exposed) and a E2 sample of the cell culture C exposed to the compound by the device described previously under the conditions specified with the configuration, then to use the D1 device to select a DNA chip corresponding to the gene specified at the time of the configuration, and to put the samples E1 and E2 thus obtained in the presence of the aforementioned DNA chip according to the methods described in the D1 device,
The result of a test, RES, transmitted by the Resource Unit to the PC, is a raw numerical value which indicates the expression level of the gene indicated in the configuration, for the cell exposed to the compound under the conditions of concentration and exposure duration specified in the configuration, compared to the expression level of the same gene in an unexposed cell of identical nature.
The following results are based on 3 evaluations, each using a different strategy, the target cells being neuronal cells, the mode of exposure being Expo11.
The results presented in table 2 show the values obtained in (052) for the evaluation of Paraquat according to the 4 modes Expo11, Expo12, Expo21, Expo22 carried out. The missing data are not relevant (ranging between 0.5 and 2 strictly).

[1] = Neuron, C2 (IC50/10), 24 h (Expo21)
[2] = Neuron, C2 (IC50/10), 48 h (Expo22)
[3] = neuronal cells, Expo11 (IC50, 24 h), strategy of selection by class

## C[n+]1ccc(-c2cc[n+](C)cc2)cc1 [Paraquat]
[1]
  ALB gene expression level RES (exposed/unexposed cells): 0.34
  APAF1 gene expression level RES (exposed/unexposed cells): 0.20
  AR gene expression level RES (exposed/unexposed cells): 0.08
  ATF6 gene expression level RES (exposed/unexposed cells): 0.17
  ATM gene expression level RES (exposed/unexposed cells): 0.11
  BAX gene expression level RES (exposed/unexposed cells): 0.09
  BCL2 gene expression level RES (exposed/unexposed cells): 0.14
  BZRP gene expression level RES (exposed/unexposed cells): 0.14
  C12ORF8 gene expression level RES (exposed/unexposed cells): 0.22
  CALR gene expression level RES (exposed/unexposed cells): 0.38
  CDC25C gene expression level RES (exposed/unexposed cells): 0.37
  CDK4 gene expression level RES (exposed/unexposed cells): 0.29
  CDKN1A gene expression level RES (exposed/unexposed cells): 0.13
  CREB1 gene expression level RES (exposed/unexposed cells): 0.29
  CTSB gene expression level RES (exposed/unexposed cells): 0.20
  CTSD gene expression level RES (exposed/unexposed cells): 0.05
  EGF gene expression level RES (exposed/unexposed cells): 0.21
  EPHX1 gene expression level RES (exposed/unexposed cells): 0.19
  FOS gene expression level RES (exposed/unexposed cells): 0.12
  GADD45A gene expression level RES (exposed/unexposed cells): 0.20
  GPX1 gene expression level RES (exposed/unexposed cells): 0.09
  GSS gene expression level RES (exposed/unexposed cells): 0.28
  GSTM3 gene expression level RES (exposed/unexposed cells): 0.36
  HOXD1 gene expression level RES (exposed/unexposed cells): 0.11
  HSPA5 gene expression level RES (exposed/unexposed cells): 0.33
  HSPA9B gene expression level RES (exposed/unexposed cells): 0.16
  JUN gene expression level RES (exposed/unexposed cells): 0.33
  MDM2 gene expression level RES (exposed/unexposed cells): 0.05
  NFKB1 gene expression level RES (exposed/unexposed cells): 0.26
  NOS2A gene expression level RES (exposed/unexposed cells): 0.30
  PARA gene expression level RES (exposed/unexposed cells): 0.04
  PGR gene expression level RES (exposed/unexposed cells): 0.12
  RAD50 gene expression level RES (exposed/unexposed cells): 0.35
  RAD51 gene expression level RES (exposed/unexposed cells): 0.22
  SOD1 gene expression level RES (exposed/unexposed cells): 0.24
  TF1 gene expression level RES (exposed/unexposed cells): 0.53
  THBS1 gene expression level RES (exposed/unexposed cells): 0.08
  TP53 gene expression level RES (exposed/unexposed cells): 0.31
  TUBA1 gene expression level RES (exposed/unexposed cells): 0.03
  XBP1 gene expression level RES (exposed/unexposed cells): 0.24
[2]
  A2M gene expression level RES (exposed/unexposed cells): 0.04
  AITCH gene expression level RES (exposed/unexposed cells): 0.03
  ALB gene expression level RES (exposed/unexposed cells): 0.02
  APAF1 gene expression level RES (exposed/unexposed cells): 0.05
  AR gene expression level RES (exposed/unexposed cells): 0.05
  ATF6 gene expression level RES (exposed/unexposed cells): 0.06
  ATM gene expression level RES (exposed/unexposed cells): 0.04
  BAX gene expression level RES (exposed/unexposed cells): 0.05
  BCL2 gene expression level RES (exposed/unexposed cells): 0.03
  BZRP gene expression level RES (exposed/unexposed cells): 0.04
  C12ORF8 gene expression level RES (exposed/unexposed cells): 0.04
  CALR gene expression level RES (exposed/unexposed cells): 0.11
  CDC25C gene expression level RES (exposed/unexposed cells): 0.05
  CDK4 gene expression level RES (exposed/unexposed cells): 0.06
  CDKN1A gene expression level RES (exposed/unexposed cells): 0.02
  CREB1 gene expression level RES (exposed/unexposed cells): 0.05
  CTSB gene expression level RES (exposed/unexposed cells): 0.06
  CTSD gene expression level RES (exposed/unexposed cells): 0.03
  EGF gene expression level RES (exposed/unexposed cells): 0.05
  EPHX1 gene expression level RES (exposed/unexposed cells): 0.08
  FOS gene expression level RES (exposed/unexposed cells): 0.05
  GADD45A gene expression level RES (exposed/unexposed cells): 0.04
  GPX1 gene expression level RES (exposed/unexposed cells): 0.02
  GSS gene expression level RES (exposed/unexposed cells): 0.03
  GSTM3 gene expression level RES (exposed/unexposed cells): 0.06
  HOXD1 gene expression level RES (exposed/unexposed cells): 0.05
  HSPA5 gene expression level RES (exposed/unexposed cells): 0.07
  HSPA9B gene expression level RES (exposed/unexposed cells): 0.06
  JUN gene expression level RES (exposed/unexposed cells): 0.05
  MDM2 gene expression level RES (exposed/unexposed cells): 0.06
  NFKB1 gene expression level RES (exposed/unexposed cells): 0.05
  NOS2A gene expression level RES (exposed/unexposed cells): 0.06
  PARA gene expression level RES (exposed/unexposed cells): 0.05
  PGR gene expression level RES (exposed/unexposed cells): 0.04
  RAD50 gene expression level RES (exposed/unexposed cells): 0.06
  RAD51 gene expression level RES (exposed/unexposed cells): 0.06
  SOD1 gene expression level RES (exposed/unexposed cells): 0.04
  TF1 gene expression level RES (exposed/unexposed cells): 0.05
  THBS1 gene expression level RES (exposed/unexposed cells): 0.06
  TP53 gene expression level RES (exposed/unexposed cells): 0.05
  TUBA1 gene expression level RES (exposed/unexposed cells): 0.04
  XBP1 gene expression level RES (exposed/unexposed cells): 0.06
[3]
  A2M marker test: relevant level of expression (RES <=0.5 or >=2): relevant result
  CDKN1A marker test: relevant level of expression (RES <=0.5 or >=2): relevant result was found
  CYP19A1 marker test: relevant level of expression (RES <=0.5 or >=2): did not provide any relevant result
  SOD1 marker test: relevant level of expression (RES <=0.5 or >=2): without success
